Experimental data taken from publication PMC4770715, “LIM kinase inhibitors disrupt mitotic microtubule organization and impair tumor cell proliferation” (Oncotarget, 2015).

Columns and labels:
Experiment in all cases: biochemical
Parameters in all cases: KINOMEscan active-site competition binding, percent of control (100 = no competition)
Conditions in all cases: competition binding, percent control
VEGFR2 = target: T1, VEGFR2 (Homo sapiens, UniProt P35968)
T1 construct: gene KDR

[1] = target: EGFR(L747-S752del, P753S) (Homo sapiens, UniProt P00533, DEL747-752/P753S)
MAP4K3 = MAP4K3 (Homo sapiens, UniProt Q8IVH8)
PFPK5(P.falciparum) = target: T2, PFPK5(P.falciparum) (Plasmodium falciparum, UniProt P61075)
T2 construct: gene CRK2

[2] = target: T3, ABL1(F317I)-phosphorylated (Homo sapiens, UniProt P00519, F317I)
T3 construct: phosphorylated

DMPK = DMPK (Homo sapiens, UniProt Q09013)
PKAC-alpha = target: T4, PKAC-alpha (Homo sapiens, UniProt P17612)
T4 construct: gene PRKACA

[3] = target: T5, RSK3(Kin.Dom.1-N-terminal) (Homo sapiens, UniProt Q15349)
T5 construct: gene RPS6KA2; Kin.Dom.1-N-terminal

EPHA1 = EPHA1 (Homo sapiens, UniProt P21709)
FRK = FRK (Homo sapiens, UniProt P42685)
YANK3 = target: T6, YANK3 (Homo sapiens, UniProt Q86UX6)
T6 construct: gene STK32C

ACVR1B = ACVR1B (Homo sapiens, UniProt P36896)
MUSK = MUSK (Homo sapiens, UniProt O15146)
FGFR3(G697C) = FGFR3(G697C) (Homo sapiens, UniProt P22607, G697C)
TXK = TXK (Homo sapiens, UniProt P42681)
FER = FER (Homo sapiens, UniProt P16591)
PAK1 = PAK1 (Homo sapiens, UniProt Q13153)
EGFR(G719S) = EGFR(G719S) (Homo sapiens, UniProt P00533, G719S)
YES = target: T7, YES (Homo sapiens, UniProt P07947)
T7 construct: gene YES1

ERBB2 = ERBB2 (Homo sapiens, UniProt P04626)
RIOK2 = RIOK2 (Homo sapiens, UniProt Q9BVS4)
PIM1 = PIM1 (Homo sapiens, UniProt P11309)

PAK1, sequence (Q13153 whole entry): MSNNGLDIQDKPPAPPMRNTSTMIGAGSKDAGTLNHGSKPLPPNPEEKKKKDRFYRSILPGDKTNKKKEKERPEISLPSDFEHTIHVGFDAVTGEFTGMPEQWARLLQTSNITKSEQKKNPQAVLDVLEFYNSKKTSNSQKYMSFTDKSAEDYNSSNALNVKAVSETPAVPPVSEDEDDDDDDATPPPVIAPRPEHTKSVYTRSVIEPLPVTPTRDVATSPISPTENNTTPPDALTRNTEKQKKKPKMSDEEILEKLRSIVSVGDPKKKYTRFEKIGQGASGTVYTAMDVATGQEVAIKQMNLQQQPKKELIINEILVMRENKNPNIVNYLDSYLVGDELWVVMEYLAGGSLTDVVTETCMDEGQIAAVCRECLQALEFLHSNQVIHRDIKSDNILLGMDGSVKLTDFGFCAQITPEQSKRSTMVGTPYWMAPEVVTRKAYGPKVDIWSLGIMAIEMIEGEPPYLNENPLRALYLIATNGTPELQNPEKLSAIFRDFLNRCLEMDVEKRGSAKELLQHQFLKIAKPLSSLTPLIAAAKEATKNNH
MUSK, sequence (O15146 whole entry): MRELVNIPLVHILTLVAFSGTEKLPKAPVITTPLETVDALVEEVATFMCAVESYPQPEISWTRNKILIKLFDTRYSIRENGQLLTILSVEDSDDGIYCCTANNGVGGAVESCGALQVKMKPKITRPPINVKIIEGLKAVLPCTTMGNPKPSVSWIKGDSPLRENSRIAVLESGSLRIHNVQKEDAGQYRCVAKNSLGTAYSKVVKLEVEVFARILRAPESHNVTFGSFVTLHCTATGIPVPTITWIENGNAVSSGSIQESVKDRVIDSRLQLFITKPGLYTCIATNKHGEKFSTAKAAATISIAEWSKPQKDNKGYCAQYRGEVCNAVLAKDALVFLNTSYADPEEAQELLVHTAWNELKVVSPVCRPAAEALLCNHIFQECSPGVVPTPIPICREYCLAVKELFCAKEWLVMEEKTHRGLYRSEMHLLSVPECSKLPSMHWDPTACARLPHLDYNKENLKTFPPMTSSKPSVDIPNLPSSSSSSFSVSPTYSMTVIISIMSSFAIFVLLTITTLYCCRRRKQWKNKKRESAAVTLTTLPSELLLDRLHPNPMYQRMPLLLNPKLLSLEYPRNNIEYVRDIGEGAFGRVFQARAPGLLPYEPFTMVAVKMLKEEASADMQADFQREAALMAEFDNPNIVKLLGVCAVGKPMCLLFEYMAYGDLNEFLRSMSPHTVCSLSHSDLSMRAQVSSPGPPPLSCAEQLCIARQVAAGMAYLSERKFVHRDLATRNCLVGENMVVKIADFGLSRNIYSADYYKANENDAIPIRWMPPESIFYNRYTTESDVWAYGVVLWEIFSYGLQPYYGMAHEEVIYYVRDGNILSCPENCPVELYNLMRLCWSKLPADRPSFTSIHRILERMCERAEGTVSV
RIOK2, sequence (Q9BVS4 whole entry): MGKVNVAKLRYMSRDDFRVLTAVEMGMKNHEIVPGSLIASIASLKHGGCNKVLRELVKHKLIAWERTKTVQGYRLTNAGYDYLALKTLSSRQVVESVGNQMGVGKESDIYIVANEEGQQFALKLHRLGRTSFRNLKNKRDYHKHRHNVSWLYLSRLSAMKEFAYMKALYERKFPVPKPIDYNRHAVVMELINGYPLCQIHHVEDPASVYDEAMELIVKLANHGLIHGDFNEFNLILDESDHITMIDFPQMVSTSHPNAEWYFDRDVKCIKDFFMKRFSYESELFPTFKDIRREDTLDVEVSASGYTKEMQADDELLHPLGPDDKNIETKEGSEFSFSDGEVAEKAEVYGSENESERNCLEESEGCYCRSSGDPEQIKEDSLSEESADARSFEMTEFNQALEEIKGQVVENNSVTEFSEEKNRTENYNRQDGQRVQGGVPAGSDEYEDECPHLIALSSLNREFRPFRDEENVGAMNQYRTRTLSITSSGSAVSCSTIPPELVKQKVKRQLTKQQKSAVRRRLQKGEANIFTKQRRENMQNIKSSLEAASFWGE
TXK, sequence (P42681 whole entry): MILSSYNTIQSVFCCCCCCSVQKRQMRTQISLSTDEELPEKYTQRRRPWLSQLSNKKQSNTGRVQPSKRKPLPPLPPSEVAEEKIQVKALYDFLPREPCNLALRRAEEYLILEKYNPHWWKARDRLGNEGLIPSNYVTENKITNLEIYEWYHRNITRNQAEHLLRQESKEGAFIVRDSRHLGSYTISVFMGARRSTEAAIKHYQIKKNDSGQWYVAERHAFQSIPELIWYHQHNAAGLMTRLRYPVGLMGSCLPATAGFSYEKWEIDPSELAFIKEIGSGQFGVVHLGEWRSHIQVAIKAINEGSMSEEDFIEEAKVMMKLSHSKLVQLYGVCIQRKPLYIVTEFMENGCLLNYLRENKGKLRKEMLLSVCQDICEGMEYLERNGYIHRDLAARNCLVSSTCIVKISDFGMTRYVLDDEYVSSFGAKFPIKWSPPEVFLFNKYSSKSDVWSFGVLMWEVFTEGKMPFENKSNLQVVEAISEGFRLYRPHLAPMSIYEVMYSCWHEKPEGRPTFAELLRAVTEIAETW
FRK, sequence (P42685 whole entry): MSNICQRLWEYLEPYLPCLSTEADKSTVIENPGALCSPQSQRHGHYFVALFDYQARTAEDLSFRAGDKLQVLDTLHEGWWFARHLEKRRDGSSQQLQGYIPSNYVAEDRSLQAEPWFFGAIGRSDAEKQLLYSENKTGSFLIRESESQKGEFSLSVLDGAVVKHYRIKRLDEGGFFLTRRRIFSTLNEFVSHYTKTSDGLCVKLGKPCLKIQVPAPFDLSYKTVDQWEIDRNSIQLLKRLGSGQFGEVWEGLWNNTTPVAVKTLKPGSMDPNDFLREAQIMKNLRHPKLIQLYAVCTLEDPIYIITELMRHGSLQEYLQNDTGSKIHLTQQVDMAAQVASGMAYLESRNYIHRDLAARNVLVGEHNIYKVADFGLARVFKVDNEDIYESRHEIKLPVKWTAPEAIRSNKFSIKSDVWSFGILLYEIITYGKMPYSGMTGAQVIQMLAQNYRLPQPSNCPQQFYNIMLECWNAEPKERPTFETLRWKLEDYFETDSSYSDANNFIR
DMPK, sequence (Q09013 whole entry): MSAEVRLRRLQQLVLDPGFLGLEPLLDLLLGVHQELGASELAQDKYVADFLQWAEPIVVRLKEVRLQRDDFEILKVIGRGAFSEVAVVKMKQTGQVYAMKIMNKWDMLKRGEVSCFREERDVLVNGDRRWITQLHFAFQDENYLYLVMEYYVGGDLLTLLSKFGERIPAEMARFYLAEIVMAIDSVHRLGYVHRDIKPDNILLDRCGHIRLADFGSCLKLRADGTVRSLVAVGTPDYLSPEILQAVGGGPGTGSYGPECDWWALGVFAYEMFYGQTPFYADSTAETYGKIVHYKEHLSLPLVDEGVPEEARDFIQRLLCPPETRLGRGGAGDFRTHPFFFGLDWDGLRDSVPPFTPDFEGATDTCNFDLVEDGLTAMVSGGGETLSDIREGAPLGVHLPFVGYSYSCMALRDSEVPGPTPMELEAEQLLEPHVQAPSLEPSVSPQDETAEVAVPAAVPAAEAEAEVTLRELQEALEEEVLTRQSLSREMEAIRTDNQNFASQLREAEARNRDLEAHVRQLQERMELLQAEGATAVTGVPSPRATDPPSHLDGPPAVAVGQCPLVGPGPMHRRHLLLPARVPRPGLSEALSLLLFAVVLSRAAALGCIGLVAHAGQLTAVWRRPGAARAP
FER, sequence (P16591 whole entry): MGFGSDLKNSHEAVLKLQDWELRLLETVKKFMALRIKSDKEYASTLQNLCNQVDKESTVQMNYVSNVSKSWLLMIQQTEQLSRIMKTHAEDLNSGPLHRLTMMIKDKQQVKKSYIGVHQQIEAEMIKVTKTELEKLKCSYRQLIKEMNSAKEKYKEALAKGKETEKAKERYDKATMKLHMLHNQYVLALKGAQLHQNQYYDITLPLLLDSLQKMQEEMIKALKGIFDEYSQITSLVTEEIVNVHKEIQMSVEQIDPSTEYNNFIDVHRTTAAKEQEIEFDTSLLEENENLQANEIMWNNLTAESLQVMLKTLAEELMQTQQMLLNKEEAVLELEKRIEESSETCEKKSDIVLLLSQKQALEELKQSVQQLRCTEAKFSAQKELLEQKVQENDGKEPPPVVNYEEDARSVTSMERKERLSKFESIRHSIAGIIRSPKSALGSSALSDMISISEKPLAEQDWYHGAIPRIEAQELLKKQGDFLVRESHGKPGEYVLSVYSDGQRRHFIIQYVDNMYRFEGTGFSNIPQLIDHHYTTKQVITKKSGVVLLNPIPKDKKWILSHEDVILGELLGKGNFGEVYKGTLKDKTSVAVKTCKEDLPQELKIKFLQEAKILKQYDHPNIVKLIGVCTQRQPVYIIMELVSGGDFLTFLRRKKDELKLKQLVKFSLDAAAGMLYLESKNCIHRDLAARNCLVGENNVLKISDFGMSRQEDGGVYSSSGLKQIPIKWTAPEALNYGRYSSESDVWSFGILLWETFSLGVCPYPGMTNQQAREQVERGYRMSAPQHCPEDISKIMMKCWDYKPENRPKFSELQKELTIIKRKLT
T6 sequence (Q86UX6 whole entry): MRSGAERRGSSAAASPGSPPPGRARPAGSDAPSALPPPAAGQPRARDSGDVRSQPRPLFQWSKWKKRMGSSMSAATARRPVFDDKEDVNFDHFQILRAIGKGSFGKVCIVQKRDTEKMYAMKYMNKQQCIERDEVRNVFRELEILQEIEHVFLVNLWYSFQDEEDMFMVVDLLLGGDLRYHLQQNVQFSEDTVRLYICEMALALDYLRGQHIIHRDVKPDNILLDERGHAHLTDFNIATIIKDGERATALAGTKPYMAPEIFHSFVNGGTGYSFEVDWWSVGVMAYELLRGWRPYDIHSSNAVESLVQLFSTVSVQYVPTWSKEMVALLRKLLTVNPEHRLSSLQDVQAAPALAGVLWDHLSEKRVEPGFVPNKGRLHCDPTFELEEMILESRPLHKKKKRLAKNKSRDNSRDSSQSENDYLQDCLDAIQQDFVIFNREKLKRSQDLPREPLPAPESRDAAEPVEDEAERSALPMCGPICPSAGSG

Row | Structure (SMILES) | remaining binding at 10 µM (VEGFR2) [%] | remaining binding at 10 µM [1] [%] | remaining binding at 10 µM (MAP4K3) [%] | remaining binding at 10 µM (PFPK5(P.falciparum)) [%] | remaining binding at 10 µM [2] [%] | remaining binding at 10 µM (DMPK) [%] | remaining binding at 10 µM (PKAC-alpha) [%] | remaining binding at 10 µM [3] [%] | remaining binding at 10 µM (EPHA1) [%] | remaining binding at 10 µM (FRK) [%] | remaining binding at 10 µM (YANK3) [%] | remaining binding at 10 µM (ACVR1B) [%] | remaining binding at 10 µM (MUSK) [%] | remaining binding at 10 µM (FGFR3(G697C)) [%] | remaining binding at 10 µM (TXK) [%] | remaining binding at 10 µM (FER) [%] | remaining binding at 10 µM (PAK1) [%] | remaining binding at 10 µM (EGFR(G719S)) [%] | remaining binding at 10 µM (YES) [%] | remaining binding at 10 µM (ERBB2) [%] | other results
1 | COc1ccc(-c2cnccc2-c2cnc(NC(=O)C(C)C)s2)c(C(F)(F)F)c1 [CRT0105446, N-{5-[3-(4-Methoxy-2-trifluoromethyl-phenyl)-pyridin-4-yl]-hiazol-2-yl}-isobutyramide] | 73 | 92 | 58 | 100 | 76 | 100 | 100 | 71 | 100 | 98 | 100 | 82 | 96 | 93 | 100 | 100 | 57 | 94 | 99 | 94 | remaining binding at 10 µM (RIOK2): 16%; remaining binding at 10 µM (PIM1): 96%
2 | Cc1ccc(-c2cnccc2-c2cnc(Nc3ccc(O)cc3)s2)c(Cl)c1 [CRT0105950, 4-{5-[3-(2-Chloro-4-methyl-phenyl)-pyridin-4-yl]-thiazol-2-ylamino}-phenol] | 45 | 66 | 18 | 84 | 87 | 100 | 41 | 0.15 | 74 | 59 | 100 | 76 | 18 | 7.2 | 38 | 57 | 97 | 75 | 66 | 80 | remaining binding at 10 µM (RIOK2): 2%; remaining binding at 10 µM (PIM1): 76%
